Where “and” joins values, the source holds several entries; their conditions need not be identical. Equal entries are not always repeated. Inconclusive results and toxic doses are left out.
System: P388 leukemia ip, CD2F1 mice, survival T/C
Test: NCI In Vivo Anticancer Drug Screen. Data for tumor model P388 Leukemia (intraperitoneal) in CD2F1 (CDF1) mice
Details: endpoint: median survival time, higher = longer survival
How it was run: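 Mice carrying the transplanted tumor received test compound or vehicle. Survival was recorded in each group, and the value is the treated-group measurement divided by that of the vehicle-treated control group.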

[1] = dose: 50.0 mg/kg/injection, schedule: Q01DX009 (ip), vehicle: Klucel (hydroxypropylcellulose) (HPC)
[2] = dose: 50.0 mg/kg/injection, schedule: Q01DX005 (ip), vehicle: saline with Tween-80
[3] = dose: 100.0 mg/kg/injection, schedule: Q01DX005 (ip), vehicle: saline with Tween-80
[4] = dose: 200.0 mg/kg/injection, schedule: Q01DX005 (ip), vehicle: saline with Tween-80
[5] = dose: 25.0 mg/kg/injection, schedule: Q01DX005 (ip), vehicle: saline with Tween-80
[6] = dose: 100.0 mg/kg/injection, schedule: Q04DX003 (ip), vehicle: Klucel (hydroxypropylcellulose) (HPC)
[7] = dose: 200.0 mg/kg/injection, schedule: Q04DX003 (ip), vehicle: Klucel (hydroxypropylcellulose) (HPC)
[8] = dose: 400.0 mg/kg/injection, schedule: Q04DX003 (ip), vehicle: Klucel (hydroxypropylcellulose) (HPC)
[9] = dose: 25.0 mg/kg/injection, schedule: Q01DX009 (ip), vehicle: saline with Tween-80
[10] = dose: 50.0 mg/kg/injection, schedule: Q01DX009 (ip), vehicle: saline with Tween-80
[11] = dose: 100.0 mg/kg/injection, schedule: Q01DX009 (ip), vehicle: saline with Tween-80
[12] = dose: 60.0 mg/kg/injection, schedule: Q01DX005 (ip), vehicle: saline with Tween-80
[13] = dose: 120.0 mg/kg/injection, schedule: Q01DX005 (ip), vehicle: saline with Tween-80
[14] = dose: 240.0 mg/kg/injection, schedule: Q01DX005 (ip), vehicle: saline with Tween-80

In the case of `O=C(O)CC12CC3CC(CC(C3)C1)C2`, the T/C [1] is reported as 102 % of control, the T/C (dose: 100.0 mg/kg/injection, schedule: Q01DX009 (ip), vehicle: Klucel (hydroxypropylcellulose) (HPC)) is reported as 103 % of control and the T/C (dose: 200.0 mg/kg/injection, schedule: Q01DX009 (ip), vehicle: Klucel (hydroxypropylcellulose) (HPC)) is reported as 102 % of control.

For `COc1ccc(COC(=O)Nc2ccccc2F)c(OC)c1OC`, the T/C [2] was 91 % of control, the T/C [3] was 101 % of control and the T/C [4] was 100 % of control.

`CCC1(O)CC(OC2CC(O)C(O)C(C)O2)c2c(O)c3c(c(O)c2C1C(=O)OC)C(=O)c1cccc(O)c1C3=O` (centres undefined) was tested, and the T/C (dose: 1.56 mg/kg/injection, schedule: Q04DX003 (ip), vehicle: water) was 104 % of control, the T/C (dose: 3.13 mg/kg/injection, schedule: Q04DX003 (ip), vehicle: water) was 103 % of control and the T/C (dose: 6.25 mg/kg/injection, schedule: Q04DX003 (ip), vehicle: water) was 103 % of control. For the same compound, the T/C (dose: 12.5 mg/kg/injection, schedule: Q04DX003 (ip), vehicle: water) was 109 % of control, the T/C (dose: 25.0 mg/kg/injection, schedule: Q04DX003 (ip), vehicle: water) was 109 % of control and the T/C (dose: 50.0 mg/kg/injection, schedule: Q04DX003 (ip), vehicle: water) was 104 % of control. The T/C (dose: 100.0 mg/kg/injection, schedule: Q04DX003 (ip), vehicle: water) was 119 % of control and the T/C (dose: 200.0 mg/kg/injection, schedule: Q04DX003 (ip), vehicle: water) was 109 % of control.

With `CCOC(=O)C(CC(=O)O)Cc1cccc(OC)c1OC` (centres undefined) the T/C (dose: 25.0 mg/kg/injection, schedule: Q01DX009 (ip), vehicle: other) was 101 % of control, the T/C (dose: 50.0 mg/kg/injection, schedule: Q01DX009 (ip), vehicle: other) was 100 % of control and the T/C (dose: 100.0 mg/kg/injection, schedule: Q01DX009 (ip), vehicle: other) was 111 % of control. For the same compound, the T/C (dose: 200.0 mg/kg/injection, schedule: Q01DX009 (ip), vehicle: other) was 97 % of control and the T/C (dose: 400.0 mg/kg/injection, schedule: Q01DX009 (ip), vehicle: other) was 93 % of control.

With `Nc1ccc(N=Nc2ccc3cc4ccc(N=Nc5ccc(N)nc5N)cc4nc3c2)c(N)n1` the T/C (dose: 6.25 mg/kg/injection, schedule: Q01DX005 (ip), vehicle: saline with Tween-80) was 92 % of control, the T/C (dose: 12.5 mg/kg/injection, schedule: Q01DX005 (ip), vehicle: saline with Tween-80) was 100 % of control and 106 % of control and the T/C [5] was 100 % of control and 116 % of control. The T/C [2] was 95 % of control, the T/C [3] was 106 % of control and the T/C [4] was 109 % of control.

`Cc1nn(-c2ccccc2)c(SC(C)(C)C)c1C=NCCN=Cc1c(C)nn(-c2ccccc2)c1SC(C)(C)C` was tested, and the T/C (dose: 3.75 mg/kg/injection, schedule: Q01DX005 (ip), vehicle: Klucel (hydroxypropylcellulose) (HPC)) was 100 % of control, the T/C (dose: 7.5 mg/kg/injection, schedule: Q01DX005 (ip), vehicle: Klucel (hydroxypropylcellulose) (HPC)) was 98 % of control and the T/C (dose: 15.0 mg/kg/injection, schedule: Q01DX005 (ip), vehicle: Klucel (hydroxypropylcellulose) (HPC)) was 100 % of control.

In the case of `CCCCC(=O)CCCCCCCCC(O)CC(=O)OCC` (centres undefined), the T/C [6] is reported as 100 % of control, the T/C [7] is reported as 103 % of control and the T/C [8] is reported as 102 % of control.

For `CCCCCCCCCCCCCCCCOc1ccc(S(=O)(=O)c2ccccc2)cc1[N+](=O)[O-]`, the T/C (dose: 25.0 mg/kg/injection, schedule: Q04DX003 (ip), vehicle: saline sonified) was 100 % of control, the T/C (dose: 50.0 mg/kg/injection, schedule: Q04DX003 (ip), vehicle: saline sonified) was 100 % of control and the T/C (dose: 100.0 mg/kg/injection, schedule: Q04DX003 (ip), vehicle: saline sonified) was 90 % of control.

With `c1ccc(C2=NNC(c3ccccc3)=NN2)cc1` the T/C (dose: 0.78 mg/kg/injection, schedule: Q01DX009 (ip), vehicle: saline with Tween-80) was 107 % of control, the T/C (dose: 1.56 mg/kg/injection, schedule: Q01DX009 (ip), vehicle: saline with Tween-80) was 95 % of control and the T/C (dose: 3.12 mg/kg/injection, schedule: Q01DX009 (ip), vehicle: saline with Tween-80) was 89 % of control. For the same compound, the T/C [9] was 93 % of control, the T/C [10] was 100 % of control and the T/C (dose: 50.0 mg/kg/injection, schedule: Q04DX003 (ip), vehicle: Klucel (hydroxypropylcellulose) (HPC)) was 97 % of control. For the same compound, the T/C [11] was 90 % of control, the T/C [6] was 104 % of control and the T/C [7] was 97 % of control. The T/C [8] was 94 % of control.

In the case of `CCc1nc(N)nc(N)c1-c1ccc([N+](=O)[O-])c(Cl)c1`, the T/C [3] is reported as 152 % of control and the T/C [4] is reported as 93 % of control.

`C1=NC(c2ccccc2)C(/C=C/c2ccccc2)N=C1c1ccccc1` (centres undefined) was tested, and the T/C (dose: 100.0 mg/kg/injection, schedule: Q01DX001 (ip), vehicle: saline) was 96 % of control, the T/C (dose: 200.0 mg/kg/injection, schedule: Q01DX001 (ip), vehicle: saline) was 93 % of control and the T/C (dose: 400.0 mg/kg/injection, schedule: Q01DX001 (ip), vehicle: saline) was 86 % of control.

For `N#C/C(C(N)=O)=C(\C(=O)c1ccccc1)c1ccccc1`, the T/C [2] was 99 % of control and the T/C [3] was 96 % of control.

In the case of `CC1CCC2(C(=O)O)CCC3(C)C(=CCC4C5(C)CC(O)C(O)C(C)(C(=O)O)C5CCC43C)C2C1(C)O` (centres undefined), the T/C (dose: 33.0 mg/kg/injection, schedule: Q01DX001 (ip), vehicle: saline with Tween-80) is reported as 100 % of control, the T/C (dose: 50.0 mg/kg/injection, schedule: Q01DX001 (ip), vehicle: saline with Tween-80) is reported as 100 % of control and the T/C (dose: 75.0 mg/kg/injection, schedule: Q01DX001 (ip), vehicle: saline with Tween-80) is reported as 90 % of control.

With `CCOC(=O)C(C)(Br)C(=O)OCC` the T/C [9] was 118 % of control, the T/C [10] was 109 % of control and the T/C [11] was 109 % of control.

`COc1ccc(C(=O)N2N=C(C)C(C)(C)C2(C)O)cc1` (centres undefined) was tested, and the T/C (dose: 60.0 mg/kg/injection, schedule: Q01DX005 (ip), vehicle: Klucel (hydroxypropylcellulose) (HPC)) was 104 % of control, the T/C (dose: 120.0 mg/kg/injection, schedule: Q01DX005 (ip), vehicle: Klucel (hydroxypropylcellulose) (HPC)) was 109 % of control and the T/C (dose: 240.0 mg/kg/injection, schedule: Q01DX005 (ip), vehicle: Klucel (hydroxypropylcellulose) (HPC)) was 104 % of control.

`CN1CCN(C2=C(Cl)C(=O)c3ccccc3C2=O)CC1` was tested, and the T/C (dose: 1.25 mg/kg/injection, schedule: Q01DX009 (ip), vehicle: saline) was 100 % of control, the T/C (dose: 2.5 mg/kg/injection, schedule: Q01DX009 (ip), vehicle: saline) was 103 % of control and the T/C (dose: 5.0 mg/kg/injection, schedule: Q01DX009 (ip), vehicle: saline) was 109 % of control.

With `CSc1cccc(NC(=O)Nc2onc(C)c2C)c1` the T/C [1] was 91 % of control.

For `COc1ncnc(Sc2ncccn2)c1[N+](=O)[O-]`, the T/C (dose: 12.5 mg/kg/injection, schedule: Q01DX009 (ip), vehicle: saline) was 103 % of control and 89 % of control, the T/C (dose: 25.0 mg/kg/injection, schedule: Q01DX009 (ip), vehicle: saline) was 103 % of control and 105 % of control and the T/C (dose: 50.0 mg/kg/injection, schedule: Q01DX009 (ip), vehicle: saline) was 102 % of control and 104 % of control and 90 % of control. The T/C (dose: 100.0 mg/kg/injection, schedule: Q01DX009 (ip), vehicle: saline) was 100 % of control and 123 % of control and 89 % of control and the T/C (dose: 200.0 mg/kg/injection, schedule: Q01DX009 (ip), vehicle: saline) was 109 % of control.

For `CC(C)(O)C1CCC2(C)CC(=O)NCCN12` (centres undefined), the T/C (dose: 25.0 mg/kg/injection, schedule: Q01DX001 (ip), vehicle: Klucel (hydroxypropylcellulose) (HPC)) was 112 % of control and the T/C (dose: 50.0 mg/kg/injection, schedule: Q01DX001 (ip), vehicle: Klucel (hydroxypropylcellulose) (HPC)) was 106 % of control.

For `CS(=O)(=O)OCCBr`, the T/C (dose: 12.5 mg/kg/injection, schedule: Q01DX009 (ip), vehicle: saline with Tween-80) was 105 % of control, the T/C [5] was 108 % of control and the T/C [9] was 105 % of control. For the same compound, the T/C [2] was 110 % of control, the T/C [10] was 114 % of control and the T/C (dose: 100.0 mg/kg/injection, schedule: Q01DX001 (ip), vehicle: saline with Tween-80) was 103 % of control. For the same compound, the T/C [3] was 106 % of control and the T/C [11] was 116 % of control.

`Clc1cccc(C(Nc2nncs2)Nc2nncs2)c1` was tested, and the T/C [12] was 100 % of control, the T/C [13] was 100 % of control and the T/C [14] was 93 % of control.

For `COCC(=O)c1ccccc1-c1ccccc1`, the T/C [2] was 100 % of control, the T/C [3] was 103 % of control and the T/C [4] was 110 % of control.

`Nc1nc2nc3c(nc2c(=O)[nH]1)CCCC3` was tested, and the T/C [12] was 101 % of control, the T/C [13] was 92 % of control and the T/C [14] was 90 % of control.

For `CCC1(C(=O)c2ccccc2)C(C(=O)OC)=NC(=S)N=C1C(=O)OC`, the T/C [12] was 99 % of control, the T/C [13] was 90 % of control and the T/C [14] was 100 % of control.

In the case of `COC(=O)CC1(C(=O)OC)Oc2ccc(Br)cc2C(=O)N1c1ccc(Br)cc1Cl` (centres undefined), the T/C [2] is reported as 96 % of control, the T/C [3] is reported as 96 % of control and the T/C [4] is reported as 91 % of control.
